Data on 10 molecules can be found in patent US20050008896A1, “Luminous organic compound and manufacturing method” (Orient Chemical Ind., Ltd., priority 2003, published 2005).

Molecules are shown by their SMILES. Like-named read-outs stand apart in the source and are kept apart here.

The conditions of data set [1]: stood at room temperature overnight.
Method: A method of measurement of the solubility is as follows. After the prescribed amount of the compound was added to each solvent, it was heated by water bath and irradiated supersonic wave for 1 hour. It was stood at room temperature overnight, and filtrated. Obtained residue was dried. Amount of insoluble residue was weighed, and solubility (w/v %) was determined.
The nature of data set [2]: Fluorescence (photoluminescence) intensity in ethanol, fluorescence spectrophotometer RF-5300PC. It is filed as physicochemical. To be noted: for Fluorescence Intensity / center of Luminous Wave: 25 mg of compound in 100 ml of ethanol; for Relative Value of Fluorescence Intensity, Relative Value (2) (Related to Metal Complex Intermediate 3): metal complex intermediate 3 regarded as 1.00. On the procedure: Fluorescence intensity of each obtained compound was measured in order to evaluate fluorescence property.
A method of the evaluation is as follows. 25 mg of each compound was dissolved in 100 ml of ethanol respectively. The fluorescence intensity, photoluminescence intensity, was measured by a fluorescence spectrophotometer RF-5300PC that is available from Shimadzu Corporation. The measured results of the luminous organic compounds 1 to 9 and 11, the comparative compounds 1 to 3 and the metal complex intermediate 1 to 3 are indicated in Table 3. […] The relative value (2) of the fluorescence intensity indicates the value related to the fluorescence intensity of the metal complex intermediate 3 regarded as 1.00.

The mark [3] stands for this setting: comparative compound 3 regarded as 1.00.

For `C[N+](C)(C)CCCC[N+](C)(C)C.O=C(C=C([O-])C(F)(F)F)c1cccs1.O=C(C=C([O-])C(F)(F)F)c1cccs1.O=C(C=C([O-])C(F)(F)F)c1cccs1.O=C(C=C([O-])C(F)(F)F)c1cccs1.O=C(C=C([O-])C(F)(F)F)c1cccs1.O=C(C=C([O-])C(F)(F)F)c1cccs1.O=C(C=C([O-])C(F)(F)F)c1cccs1.O=C(C=C([O-])C(F)(F)F)c1cccs1.[Eu+3].[Eu+3]` [Luminous Organic Compound 8], in data set [1], the “Solubility, Ethanol” value was found to be 0.15 w/v %; the “Solubility, Ethyl Acetate” value is recorded as 0.88 w/v %; the “Solubility, Methyl Ethyl Ketone” value was “over 10.0 w/v %”; the “Solubility, Toluene” value turned out to be 0.18 w/v %. Further, the “Solubility, Xylene” value in data set [1] was determined as 0.10 w/v %. In addition, in data set [2], the “Relative Value of Fluorescence Intensity, Relative Value (1) (Related to Comparative Compound 3)” value is on record as 1.02; the “Fluorescence Intensity” value was 510; the “center of Luminous Wave” value is listed as “(613 nm)”; the “Relative Value of Fluorescence Intensity, Relative Value (2) (Related to Metal Complex Intermediate 3)” value turned out to be 1.03.
In the case of `C[N+](C)(C)CCCC[N+](C)(C)C.O=C(C=C([O-])C(F)(F)F)c1ccc2ccccc2c1.O=C(C=C([O-])C(F)(F)F)c1ccc2ccccc2c1.O=C(C=C([O-])C(F)(F)F)c1ccc2ccccc2c1.O=C(C=C([O-])C(F)(F)F)c1ccc2ccccc2c1.O=C(C=C([O-])C(F)(F)F)c1ccc2ccccc2c1.O=C(C=C([O-])C(F)(F)F)c1ccc2ccccc2c1.O=C(C=C([O-])C(F)(F)F)c1ccc2ccccc2c1.O=C(C=C([O-])C(F)(F)F)c1ccc2ccccc2c1.[Al+3].[Al+3]` [Luminous Organic Compound 11], in data set [1], the “Solubility, Ethanol” value is given as 0.21 w/v %; the “Solubility, Ethyl Acetate” value amounted to 1.60 w/v %; the “Solubility, Methyl Ethyl Ketone” value was “over 10.0 w/v %”; the “Solubility, Toluene” value stood at 0.25 w/v %. The “Solubility, Xylene” value in data set [1] is given as 0.10 w/v %. In data set [2], the “Relative Value of Fluorescence Intensity, Relative Value (1) (Related to Comparative Compound 3)” value was determined as 0.52; the “Fluorescence Intensity” value is 262; the “center of Luminous Wave” value is recorded as “(455 nm)”; the “Relative Value of Fluorescence Intensity, Relative Value (2) (Related to Metal Complex Intermediate 3)” value is recorded as 0.53.
For `C[N+](C)(C)CCCC[N+](C)(C)C.O=C(C=C([O-])C(F)(F)F)c1ccc2ccccc2c1.O=C(C=C([O-])C(F)(F)F)c1ccc2ccccc2c1.O=C(C=C([O-])C(F)(F)F)c1ccc2ccccc2c1.O=C(C=C([O-])C(F)(F)F)c1ccc2ccccc2c1.O=C(C=C([O-])C(F)(F)F)c1ccc2ccccc2c1.O=C(C=C([O-])C(F)(F)F)c1ccc2ccccc2c1.O=C(C=C([O-])C(F)(F)F)c1ccc2ccccc2c1.O=C(C=C([O-])C(F)(F)F)c1ccc2ccccc2c1.[Eu+3].[Eu+3]` [Luminous Organic Compound 2], in data set [1], the “Solubility, Ethanol” value turned out to be 0.19 w/v %; the “Solubility, Ethyl Acetate” value is listed as 1.54 w/v %; the “Solubility, Methyl Ethyl Ketone” value is listed as “over 10.0 w/v %”; the “Solubility, Toluene” value came out at 0.24 w/v %. Moreover, in data set [1], the “Solubility, Xylene” value worked out at 0.10 w/v %. In data set [2], the “Relative Value of Fluorescence Intensity, Relative Value (1) (Related to Comparative Compound 3)” value stood at 1.48; the “Fluorescence Intensity” value is 744; the “center of Luminous Wave” value is on record as “(613 nm)”; the “Relative Value of Fluorescence Intensity, Relative Value (2) (Related to Metal Complex Intermediate 3)” value is 1.50.
As to `C[N+](C)(C)c1ccc([N+](C)(C)C)cc1.O=C(C=C([O-])C(F)(F)F)c1ccc2ccccc2c1.O=C(C=C([O-])C(F)(F)F)c1ccc2ccccc2c1.O=C(C=C([O-])C(F)(F)F)c1ccc2ccccc2c1.O=C(C=C([O-])C(F)(F)F)c1ccc2ccccc2c1.O=C(C=C([O-])C(F)(F)F)c1ccc2ccccc2c1.O=C(C=C([O-])C(F)(F)F)c1ccc2ccccc2c1.O=C(C=C([O-])C(F)(F)F)c1ccc2ccccc2c1.O=C(C=C([O-])C(F)(F)F)c1ccc2ccccc2c1.[Eu+3].[Eu+3]` [Luminous Organic Compound 4], in data set [1], the “Solubility, Ethanol” value was found to be 0.08 w/v %; the “Solubility, Ethyl Acetate” value is “over 10.0 w/v %”; the “Solubility, Methyl Ethyl Ketone” value is given as “over 10.0 w/v %”; the “Solubility, Toluene” value is 0.23 w/v %. Further, the “Solubility, Xylene” value in data set [1] is 0.22 w/v %. Further, in data set [2], the “Relative Value of Fluorescence Intensity, Relative Value (1) (Related to Comparative Compound 3)” value came out at 1.52; the “Fluorescence Intensity” value was 766; the “center of Luminous Wave” value was “(613 nm)”; the “Relative Value of Fluorescence Intensity, Relative Value (2) (Related to Metal Complex Intermediate 3)” value is recorded as 1.55.
As to `C[N+](C)(C)c1ccc(C(c2ccc([N+](C)(C)C)cc2)c2ccc([N+](C)(C)C)cc2)cc1.O=C(C=C([O-])C(F)(F)F)c1ccc2ccccc2c1.O=C(C=C([O-])C(F)(F)F)c1ccc2ccccc2c1.O=C(C=C([O-])C(F)(F)F)c1ccc2ccccc2c1.O=C(C=C([O-])C(F)(F)F)c1ccc2ccccc2c1.O=C(C=C([O-])C(F)(F)F)c1ccc2ccccc2c1.O=C(C=C([O-])C(F)(F)F)c1ccc2ccccc2c1.O=C(C=C([O-])C(F)(F)F)c1ccc2ccccc2c1.O=C(C=C([O-])C(F)(F)F)c1ccc2ccccc2c1.O=C(C=C([O-])C(F)(F)F)c1ccc2ccccc2c1.O=C(C=C([O-])C(F)(F)F)c1ccc2ccccc2c1.O=C(C=C([O-])C(F)(F)F)c1ccc2ccccc2c1.O=C(C=C([O-])C(F)(F)F)c1ccc2ccccc2c1.[Eu+3].[Eu+3].[Eu+3]` [Luminous Organic Compound 7], in data set [1], the “Solubility, Ethanol” value turned out to be 0.16 w/v %; the “Solubility, Ethyl Acetate” value worked out at 10.0 w/v %; the “Solubility, Methyl Ethyl Ketone” value is “over 10.0 w/v %”; the “Solubility, Toluene” value turned out to be 0.14 w/v %. In addition, the “Solubility, Xylene” value in data set [1] is on record as 0.16 w/v %. In addition, in data set [2], the “Fluorescence Intensity” value is 835; the “center of Luminous Wave” value is “(613 nm)”; the “Relative Value of Fluorescence Intensity, Relative Value (2) (Related to Metal Complex Intermediate 3)” value is given as 1.69. The “Relative Value of Fluorescence Intensity, Relative Value (1) (Related to Comparative Compound 3)” value in data set [2] (setting [3]) is on record as 1.66.
Consider `C[N+](C)(C)CCCCCC[N+](C)(C)C.O=C(C=C([O-])C(F)(F)F)c1ccc2ccccc2c1.O=C(C=C([O-])C(F)(F)F)c1ccc2ccccc2c1.O=C(C=C([O-])C(F)(F)F)c1ccc2ccccc2c1.O=C(C=C([O-])C(F)(F)F)c1ccc2ccccc2c1.O=C(C=C([O-])C(F)(F)F)c1ccc2ccccc2c1.O=C(C=C([O-])C(F)(F)F)c1ccc2ccccc2c1.O=C(C=C([O-])C(F)(F)F)c1ccc2ccccc2c1.O=C(C=C([O-])C(F)(F)F)c1ccc2ccccc2c1.[Eu+3].[Eu+3]` [Luminous Organic Compound 3], for which, in data set [1], the “Solubility, Ethanol” value is listed as 0.14 w/v %; the “Solubility, Ethyl Acetate” value is 9.01 w/v %; the “Solubility, Methyl Ethyl Ketone” value is reported as “over 10.0 w/v %”; the “Solubility, Toluene” value is recorded as 0.31 w/v %. For the same molecule, the “Solubility, Xylene” value in data set [1] amounted to 0.18 w/v %. In data set [2], the “Relative Value of Fluorescence Intensity, Relative Value (1) (Related to Comparative Compound 3)” value came out at 1.63; the “Fluorescence Intensity” value stood at 822; the “center of Luminous Wave” value is reported as “(613 nm)”; the “Relative Value of Fluorescence Intensity, Relative Value (2) (Related to Metal Complex Intermediate 3)” value is recorded as 1.66.
`O=C(C=C([O-])C(F)(F)F)c1ccccc1.O=C(C=C([O-])C(F)(F)F)c1ccccc1.O=C(C=C([O-])C(F)(F)F)c1ccccc1.[Eu+3]` [Metal Complex Intermediate 3]: in data set [2], the “Fluorescence Intensity” value worked out at 493; the “center of Luminous Wave” value was “(613 nm)”; the “Relative Value of Fluorescence Intensity, Relative Value (2) (Related to Metal Complex Intermediate 3)” value is listed as “(1.00)”. In addition, the “Relative Value of Fluorescence Intensity, Relative Value (1) (Related to Comparative Compound 3)” value in data set [2] (setting [3]) was 0.98.
In the same order, the values of `O=C(C=C([O-])C(F)(F)F)c1cccs1.O=C(C=C([O-])C(F)(F)F)c1cccs1.O=C(C=C([O-])C(F)(F)F)c1cccs1.[Eu+3]` [Metal Complex Intermediate 2] are 566, “(613 nm)”, 1.15 and 1.13.
In the same order, the values of `O=C(C=C([O-])C(F)(F)F)c1ccc2ccccc2c1.O=C(C=C([O-])C(F)(F)F)c1ccc2ccccc2c1.O=C(C=C([O-])C(F)(F)F)c1ccc2ccccc2c1.[Eu+3]` [Metal Complex Intermediate 1] are 665, “(613 nm)”, 1.35 and 1.32.
On to `C[N+](C)(C)CCCC[N+](C)(C)C.O=C(C=C([O-])C(F)(F)F)c1ccc2ccccc2c1.O=C(C=C([O-])C(F)(F)F)c1ccc2ccccc2c1.O=C(C=C([O-])C(F)(F)F)c1ccc2ccccc2c1.O=C(C=C([O-])C(F)(F)F)c1ccc2ccccc2c1.O=C(C=C([O-])C(F)(F)F)c1ccc2ccccc2c1.O=C(C=C([O-])C(F)(F)F)c1ccc2ccccc2c1.O=C(C=C([O-])C(F)(F)F)c1ccc2ccccc2c1.O=C(C=C([O-])C(F)(F)F)c1ccc2ccccc2c1.[Tb+3].[Tb+3]` [Luminous Organic Compound 10], for which, in data set [1], the “Solubility, Ethanol” value came out at 0.062 w/v %; the “Solubility, Ethyl Acetate” value was 1.21 w/v %; the “Solubility, Methyl Ethyl Ketone” value is “over 10.0 w/v %”; the “Solubility, Toluene” value came out at 0.43 w/v %. Further, the “Solubility, Xylene” value in data set [1] was 0.32 w/v %.
